The source of these data is ChEMBL document CHEMBL4145535, “Recent updates for designing CCR5 antagonists as anti-retroviral agents” (Eur J Med Chem, 2018).

The target of assay [1] is T1, C-C chemokine receptor type 5 (Homo sapiens, UniProt P51681). Nature of the assay: Antagonist activity at CCR5 (unknown origin) by HTS assay. Format: functional.
Target sequence in this assay (P51681 whole entry): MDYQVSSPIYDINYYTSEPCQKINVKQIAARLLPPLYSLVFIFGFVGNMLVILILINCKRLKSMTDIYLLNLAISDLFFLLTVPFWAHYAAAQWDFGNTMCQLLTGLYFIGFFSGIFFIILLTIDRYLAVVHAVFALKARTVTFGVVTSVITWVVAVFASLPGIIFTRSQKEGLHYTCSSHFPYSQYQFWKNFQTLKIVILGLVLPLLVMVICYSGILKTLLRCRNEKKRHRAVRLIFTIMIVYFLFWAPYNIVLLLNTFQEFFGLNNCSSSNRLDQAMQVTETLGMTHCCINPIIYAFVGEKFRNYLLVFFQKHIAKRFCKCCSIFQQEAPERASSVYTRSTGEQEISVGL
Assay [2] addresses T1, C-C chemokine receptor type 5. Description: Displacement of [125I]-RANTES from CCR5 in mouse NIH/3T3 cells after 1 hr. In general terms: Loss of bound radioactivity is the signal in a displacement assay; it reports binding, not function.
Target sequence in this assay (P51681 whole entry, looked up): as the sequence (P51681 whole entry) above

`C1NCC2CNCC12` (configuration not stated) displayed an IC50 in assay [1] of 7 nM.

Turning to `C=CCN(C(=O)OCc1ccc([N+](=O)[O-])cc1)C1CCN(C[C@H]2CN(C(=O)C3CCCC3)C[C@]2(O)c2ccccc2)CC1` [NIFEVIROC], in assay [2], the concentration for half-maximal inhibition (IC50) was found to be 2.9 nM.

For orientation: IC50 means the concentration at which inhibition is half-maximal. A lower IC50 goes with inhibition by little substance.
